In ChEMBL document CHEMBL1909046, “DrugMatrix in vitro pharmacology data”:

Legend:
[1] = DRUGMATRIX: Phosphodiesterase PDE3 enzyme inhibition (substrate: [3H]cAMP + cAMP); assay type: tissue-based, Homo sapiens; details: platelet, Not Active = under 50% inhibition at 10 µM
[2] = biological target: T1, Alpha-1D adrenergic receptor (Homo sapiens, UniProt P25100); assay type: cell membranes, HEK293, Membrane; details: hek293; further: in other assays of this panel Not Active means under 50% inhibition at 10 µM
T1 sequence (P25100 whole entry): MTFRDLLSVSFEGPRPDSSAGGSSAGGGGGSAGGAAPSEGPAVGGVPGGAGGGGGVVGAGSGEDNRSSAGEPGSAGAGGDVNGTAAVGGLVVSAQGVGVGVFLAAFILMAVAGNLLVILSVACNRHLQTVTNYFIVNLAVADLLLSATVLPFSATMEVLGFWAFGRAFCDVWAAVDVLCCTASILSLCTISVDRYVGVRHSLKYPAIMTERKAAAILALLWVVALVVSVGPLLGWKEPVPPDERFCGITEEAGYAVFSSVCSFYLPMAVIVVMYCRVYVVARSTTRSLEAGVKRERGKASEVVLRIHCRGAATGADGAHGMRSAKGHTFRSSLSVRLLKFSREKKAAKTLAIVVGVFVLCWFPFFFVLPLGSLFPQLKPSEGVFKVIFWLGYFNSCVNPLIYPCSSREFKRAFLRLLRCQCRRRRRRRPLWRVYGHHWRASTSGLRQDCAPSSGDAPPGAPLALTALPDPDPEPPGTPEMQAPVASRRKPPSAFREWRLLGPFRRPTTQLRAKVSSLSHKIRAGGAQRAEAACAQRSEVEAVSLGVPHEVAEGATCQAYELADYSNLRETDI

[3] = biological target: T2, Cysteinyl leukotriene receptor 1 (Homo sapiens, UniProt Q9Y271); assay type: cell membranes, Membrane; details: cho-k1; further: in other assays of this panel Not Active means under 50% inhibition at 10 µM
T2 sequence (Q9Y271 whole entry): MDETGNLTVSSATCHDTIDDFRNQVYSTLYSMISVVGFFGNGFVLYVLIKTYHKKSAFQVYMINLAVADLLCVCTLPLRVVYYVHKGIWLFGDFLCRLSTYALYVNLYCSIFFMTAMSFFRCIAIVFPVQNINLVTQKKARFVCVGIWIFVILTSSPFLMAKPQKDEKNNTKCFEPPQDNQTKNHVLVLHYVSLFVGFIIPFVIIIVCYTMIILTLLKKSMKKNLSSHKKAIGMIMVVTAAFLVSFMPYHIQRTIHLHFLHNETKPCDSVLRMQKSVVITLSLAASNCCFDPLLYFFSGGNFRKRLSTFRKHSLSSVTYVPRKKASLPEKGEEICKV

[4] = biological target: Beta-1 adrenergic receptor (Homo sapiens, UniProt P08588); assay: DRUGMATRIX: Adrenergic beta1 radioligand binding (ligand: [125I] Cyanopindolol); assay type: cell membranes, CHO-K1, Membrane; details: cho-k1; Not Active = under 50% inhibition at 10 µM
[5] = biological target: T3, Receptor-type tyrosine-protein phosphatase C (Homo sapiens, UniProt P08575); design: species or system Escherichia coli;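 further: inhibition of CD45 enzyme activity measured using DiFMUP as substrate; in other assays of this panel Not Active means under 50% inhibition at 10 µM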
T3 sequence (P08575 whole entry): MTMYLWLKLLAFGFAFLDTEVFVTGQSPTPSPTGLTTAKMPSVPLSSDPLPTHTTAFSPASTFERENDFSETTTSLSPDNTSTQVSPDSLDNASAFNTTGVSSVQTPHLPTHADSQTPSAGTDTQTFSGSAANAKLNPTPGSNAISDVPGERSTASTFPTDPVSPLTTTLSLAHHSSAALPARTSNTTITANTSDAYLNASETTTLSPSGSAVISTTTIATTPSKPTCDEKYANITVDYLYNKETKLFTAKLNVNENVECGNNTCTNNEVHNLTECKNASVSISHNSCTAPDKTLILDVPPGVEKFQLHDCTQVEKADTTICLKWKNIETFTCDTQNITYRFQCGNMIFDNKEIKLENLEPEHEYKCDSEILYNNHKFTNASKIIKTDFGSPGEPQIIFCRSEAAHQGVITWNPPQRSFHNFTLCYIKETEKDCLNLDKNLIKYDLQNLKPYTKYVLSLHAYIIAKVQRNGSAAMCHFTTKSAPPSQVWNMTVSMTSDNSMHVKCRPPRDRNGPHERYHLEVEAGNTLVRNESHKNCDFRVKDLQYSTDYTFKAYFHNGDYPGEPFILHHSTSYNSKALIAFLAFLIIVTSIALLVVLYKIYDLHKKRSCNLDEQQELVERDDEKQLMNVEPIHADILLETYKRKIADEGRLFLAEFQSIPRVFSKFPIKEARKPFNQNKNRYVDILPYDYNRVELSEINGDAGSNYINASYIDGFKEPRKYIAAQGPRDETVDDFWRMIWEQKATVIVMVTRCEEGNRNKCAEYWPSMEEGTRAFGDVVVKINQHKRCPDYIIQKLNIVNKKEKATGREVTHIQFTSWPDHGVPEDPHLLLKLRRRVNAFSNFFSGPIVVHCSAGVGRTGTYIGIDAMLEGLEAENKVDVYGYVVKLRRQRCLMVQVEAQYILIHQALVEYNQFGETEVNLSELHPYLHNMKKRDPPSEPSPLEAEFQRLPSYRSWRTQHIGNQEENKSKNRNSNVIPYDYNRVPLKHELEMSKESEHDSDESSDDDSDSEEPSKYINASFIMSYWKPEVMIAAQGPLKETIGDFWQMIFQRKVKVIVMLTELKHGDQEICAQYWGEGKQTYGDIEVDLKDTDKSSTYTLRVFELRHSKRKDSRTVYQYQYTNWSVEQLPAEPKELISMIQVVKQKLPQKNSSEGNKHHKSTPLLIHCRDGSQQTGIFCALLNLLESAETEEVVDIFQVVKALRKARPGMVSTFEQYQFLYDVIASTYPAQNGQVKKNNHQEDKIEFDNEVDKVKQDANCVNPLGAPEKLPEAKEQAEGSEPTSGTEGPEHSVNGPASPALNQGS

Thromboxane-A synthase = biological target: T4, Thromboxane-A synthase (Homo sapiens, UniProt P24557); assay: biochemical; assay type: tissue-based, Platelet; details: platelet;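 further: enzyme inhibition assay with PGH2 supplied as substrate; in other assays of this panel Not Active means under 50% inhibition at 10 µM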
T4 sequence (P24557 whole entry): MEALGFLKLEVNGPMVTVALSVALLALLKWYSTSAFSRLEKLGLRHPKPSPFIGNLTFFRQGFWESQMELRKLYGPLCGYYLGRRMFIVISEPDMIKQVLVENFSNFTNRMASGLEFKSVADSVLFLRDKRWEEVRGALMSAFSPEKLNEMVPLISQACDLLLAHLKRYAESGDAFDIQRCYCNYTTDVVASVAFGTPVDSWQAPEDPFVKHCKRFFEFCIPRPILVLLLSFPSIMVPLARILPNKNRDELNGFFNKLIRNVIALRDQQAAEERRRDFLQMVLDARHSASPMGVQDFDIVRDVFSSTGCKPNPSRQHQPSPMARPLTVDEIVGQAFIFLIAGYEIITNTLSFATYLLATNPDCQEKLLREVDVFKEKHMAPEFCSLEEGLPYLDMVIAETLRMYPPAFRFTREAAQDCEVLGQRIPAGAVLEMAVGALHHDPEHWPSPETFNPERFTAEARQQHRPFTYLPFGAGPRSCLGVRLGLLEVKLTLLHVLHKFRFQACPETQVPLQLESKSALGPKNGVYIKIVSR

Sequence of Beta-1 adrenergic receptor (P08588 whole entry): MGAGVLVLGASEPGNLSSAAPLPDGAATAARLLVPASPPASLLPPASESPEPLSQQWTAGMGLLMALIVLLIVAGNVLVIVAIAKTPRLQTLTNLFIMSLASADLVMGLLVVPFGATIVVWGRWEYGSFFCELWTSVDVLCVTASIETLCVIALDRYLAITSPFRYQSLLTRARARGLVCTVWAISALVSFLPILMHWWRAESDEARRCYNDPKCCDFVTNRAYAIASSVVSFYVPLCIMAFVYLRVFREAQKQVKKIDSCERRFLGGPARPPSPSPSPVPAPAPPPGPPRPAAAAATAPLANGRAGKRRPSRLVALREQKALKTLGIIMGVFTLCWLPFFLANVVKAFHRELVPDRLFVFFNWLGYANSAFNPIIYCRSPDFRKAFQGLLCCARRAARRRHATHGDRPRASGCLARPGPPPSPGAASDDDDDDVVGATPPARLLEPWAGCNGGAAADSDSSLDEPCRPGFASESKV

Compound | IC50 [1] | Ki [1] | IC50 [2] | IC50 [3] | IC50 [4] | IC50 [5] | IC50 (Thromboxane-A synthase) | IC50 ([1]; read-out: IC50) | Ki [3] | Ki [2] | Ki [4] | Ki [5] | Ki (Thromboxane-A synthase)
C/C=C\c1ccc(O)c(OC)c1 [ISOEUGENOL] | Not Active | Not Active | Not Active | Not Active | Not Active | Not Active | Not Active |  |  |  |  |  | 
CC[C@H](C)C(=O)O[C@H]1C[C@@H](C)C=C2C=C[C@H](C)[C@H](CC[C@@H]3C[C@@H](O)CC(=O)O3)[C@H]21 [LOVASTATIN] | Not Active | Not Active | Not Active | Not Active | Not Active | Not Active | Not Active |  |  |  |  |  | 
CC(C(=O)O)c1ccc(CC2CCCC2=O)cc1 (centres undefined) [LOXOPROFEN] | Not Active | Not Active | Not Active | Not Active | Not Active | Not Active | Not Active |  |  |  |  |  | 
Cc1cccc(Nc2ccccc2C(=O)O)c1C [MEFENAMIC ACID] | Not Active | Not Active | Not Active | Not Active | Not Active | Not Active | Not Active |  |  |  |  |  | 
CC(=O)O[C@]1(C(C)=O)CC[C@H]2[C@@H]3C=C(C)C4=CC(=O)CC[C@]4(C)[C@H]3CC[C@@]21C [MEGESTROL ACETATE] | Not Active | Not Active | Not Active | Not Active | Not Active | Not Active | Not Active |  |  |  |  |  | 
COc1ccccc1OCC(O)COC(N)=O (centres undefined) [METHOCARBAMOL] | Not Active | Not Active | Not Active | Not Active | Not Active | Not Active | Not Active |  |  |  |  |  | 
CN(Cc1cnc2nc(N)nc(N)c2n1)c1ccc(C(=O)N[C@@H](CCC(=O)O)C(=O)O)cc1 [METHOTREXATE] | Not Active | Not Active | Not Active | Not Active | Not Active | Not Active | Not Active |  |  |  |  |  | 
COC(=O)c1ccccc1O [METHYL SALICYLATE] | Not Active | Not Active | Not Active | Not Active | Not Active | Not Active | Not Active |  |  |  |  |  | 
COc1ccc2cc(CCC(C)=O)ccc2c1 [NABUMETONE] | Not Active | Not Active | Not Active | Not Active | Not Active | Not Active | Not Active |  |  |  |  |  | 
O=C(O)c1cccnc1 [NIACIN] | Not Active | Not Active | Not Active | Not Active | Not Active | Not Active | Not Active |  |  |  |  |  | 
CNC(=C[N+](=O)[O-])NCCSCc1csc(CN(C)C)n1 [NIZATIDINE] | Not Active | Not Active | Not Active | Not Active | Not Active | Not Active | Not Active |  |  |  |  |  | 
C[C@]12C/C(=C/O)C(=O)C[C@@H]1CC[C@@H]1[C@@H]2CC[C@@]2(C)[C@H]1CC[C@]2(C)O [OXYMETHOLONE] | Not Active | Not Active | Not Active | Not Active | Not Active | Not Active | Not Active |  |  |  |  |  | 
CC(C)(CO)C(O)C(=O)NCCCO (centres undefined) [PANTHENOL] | Not Active | Not Active | Not Active | Not Active | Not Active | Not Active | Not Active |  |  |  |  |  | 
COc1ccc(Cc2nccc3cc(OC)c(OC)cc23)cc1OC [PAPAVERINE] |  |  | Not Active |  | Not Active | Not Active | Not Active | 665 nM | Not Active |  |  |  | 
OCCN1CCN(CCCN2c3ccccc3Sc3ccc(Cl)cc32)CC1 [PERPHENAZINE] | Not Active | Not Active | Not Active | Not Active | Not Active | Not Active | Not Active |  |  |  |  |  | 
CCCCC1C(=O)N(c2ccccc2)N(c2ccccc2)C1=O [PHENYLBUTAZONE] | Not Active | Not Active | Not Active | Not Active | Not Active | Not Active | Not Active |  |  |  |  |  | 
Cc1cccc(Nc2cc(Cl)nc(SCC(=O)O)n2)c1C [PIRINIXIC ACID] | Not Active | Not Active | Not Active | Not Active | Not Active | Not Active | Not Active |  |  |  |  |  | 
CC[C@H](C)C(=O)O[C@H]1C[C@H](O)C=C2C=C[C@H](C)[C@H](CC[C@@H](O)C[C@@H](O)CC(=O)O)[C@H]21 [PRAVASTATIN] | Not Active | Not Active | Not Active | Not Active | Not Active | Not Active | Not Active |  |  |  |  |  | 
CC(C)(Sc1cc(C(C)(C)C)c(O)c(C(C)(C)C)c1)Sc1cc(C(C)(C)C)c(O)c(C(C)(C)C)c1 [PROBUCOL] | Not Active | Not Active | Not Active | Not Active | Not Active | Not Active | Not Active |  |  |  |  |  | 
COBALT(II) ACETYLACETONATE | Not Active | Not Active | Not Active | Not Active | Not Active | Not Active | Not Active |  | Not Active | Not Active | Not Active | Not Active | Not Active
